This passage reports Km, Vmax and Stability on storage results from patent US6387668B1, “Enantioselective epoxide hydrolases and genes encoding these” (Rijksuniversiteit Groningen, priority 1997, dated 2002).

One data set deals with epoxide hydrolase (Agrobacterium tumefaciens, UniProt O31243). Briefly: Kinetics of epoxide hydrolase with epichlorohydrin as substrate. The class given is biochemical, Agrobacterium radiobacter. An excerpt:
It is now possible to study the kinetics of epoxide hydrolase by performing rapid quench and stopped flow experiments. Stopped flow experiments are possible since substrate is able to quench the fluorescence signal of some of the tryptophans present in epoxide hydrolase. Also, it is possible to mutate (replace) the amino acids (e.g. tryptophans) that are involved in substrate binding. Either with site-directed mutagenesis or random mutagenesis, it is possible to modify the substrate specificity and the stereoselectivity of epoxide hydrolase. The epoxide hydrolase has the following characteristics.
The asymmetric hydrolysis of the substrate is generally conducted in aqueous solution. The pH of the solution is maintained by means of a buffer. Maximum enzyme activity is obtained at pH 9 but a range of pH 5 to 11 can be employed. The composition of the buffer can for example be Tris/H2SO4, potassium phosphate or glycine/NaOH. The maximum enzyme activity is obtained at a temperature of 50° C., but the reaction can be conducted at a temperature ranging from 5° C. to 65° C. The substrate concentration used to measure the enzyme activity is from 1 to 20 mM. In case of poorly soluble substrates, the water solubility can be increased by adding a miscible organic cosolvent such a DMSO. Also other organic solvents can be used. […]

Data set [1] is described as follows: Storage stability of recombinant epoxide hydrolase. The class given is physicochemical. To be noted: 4° C., expressed in E.coli.

What is called Km is the concentration of substrate that gives half-maximal velocity. For `ClCC1CO1` (stereo not drawn) [epichlorohydrin], on epoxide hydrolase, the Km was below 30 µM and the Vmax amounted to 25 μmol min^−1.mg.protein^−1.

B1: epoxide hydrolase: 34 kDa monomeric enzyme (approximately 294 amino acids) from Agrobacterium radiobacter AD1, expressed in E.coli (protein)
chain: MTIRRPEDFKHYEVQLPDVKIHYVREGAGPTLLLLHGWPGFWWEWSKVIGPLAEHYDVIVPDLRGFGDSEKPDLNDLSKYSLDKAADDQAALLDALGIEKAYVVGHDFAAIVLHKFIRKYSDRVIKAAIFDPIQPDFGPVYFGLGHVHESWYSQFHQLDMAVEVVGSSREVCKKYFKHFFDHWSYRDELLTEEELEVHVDNCMKPDNIHGGFNYYRANIRPDAALWTDLDHTMSDLPVTMIWGLGDTCVPYAPLIEFVPKYYSNYTMETIEDCGHFLMVEKPEIAIDRIKTAFR
Turning to B1, the Stability on storage result in data set [1] is “stable at 4 °C for at least half a year”.
